# In patent publication US7705034B2, “Vinylogous acid derivatives” (Hoffmann-La Roche Inc., priority 2006, dated 2010):
# Molecular target: T1, Chymase purified form human skin mast cells (Homo sapiens, UniProt P23946)
# T1 construct: Chymase purified form human skin mast cells was obtained from Calbiochem; purchased Calbiochem (Merck Biosciences, San Diego, Calif., USA); host or cells: human skin mast cells (natural source)
# T1 sequence (P23946 22-247): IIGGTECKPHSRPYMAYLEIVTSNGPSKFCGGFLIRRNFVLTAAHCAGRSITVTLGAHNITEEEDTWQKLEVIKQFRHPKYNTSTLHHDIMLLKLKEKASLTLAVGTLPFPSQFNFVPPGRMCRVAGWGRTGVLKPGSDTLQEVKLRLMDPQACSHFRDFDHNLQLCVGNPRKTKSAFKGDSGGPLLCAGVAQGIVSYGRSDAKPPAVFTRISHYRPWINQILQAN
# Assay: chymase peptide substrate assay (AAPF-AMC fluorescence)
# Format: biochemical
# Details: 1 nM chymase, 0.02 mM AAPF-substrate, pH 7.4, room temperature, 30 min pre-incubation
# Description: The peptide was synthesized with a purity of 95% from Bachem, Bubendorf, Switzerland). Chymase purified form human skin mast cells was obtained from Calbiochem (Merck Biosciences, San Diego, Calif., USA). The assay buffer was 0.15 M NaCl, 0.05M, Tris HCl, 0.05% CHAPS (3-[(3-Cholamidopropyl)-dimethylammonio]-1-propane sulphonate), 0.1 mg/ml Heparin (Heparin sodium, Sigma, porcine intestinal mucosa), 0.02 mM AAPF-substrate, 1 nM Chymase at pH 7.4. The assay was performed in 96-well plates (Packard Optiplate), with a 0.05 ml volume at room temperature. Chymase activity was indicated by the initial rate of increase in fluorescence at 340/440 nm (excitation/emission) from free 7-amino-4-methylcoumarin released from the substrate. Inhibition of the activity by inhibitory compounds was read after 30 min pre-incubation with the chymase at room temperature in assay buffer without AAPF-substrate. The assay was then started by addition of the indicated concentration of AAPF-substrate.
row,IC50,Structure (SMILES)
1,0.025 µM,"CC(=O)NCc1c(C(C2=C(O)C(C)(c3ccccc3)C2=O)c2ccccc2)[nH]c2cc(C)ccc12 (stereo not shown) [Example 10, N-{2-[(2-Hydroxy-3-methyl-4-oxo-3-phenyl-cyclobut-1-enyl)-phenyl-methyl]-6-methyl-1H-indol-3-ylmethyl}-acetamide]"
2,0.034 µM,"Cc1c(C(C2=C(O)C(C)(c3ccccc3)C2=O)c2ccccc2)[nH]c2ccccc12 (stereo not shown) [Example 6, 3-Hydroxy-4-methyl-2-[(3-methyl-1H-indol-2-yl)-phenyl-methyl]-4-phenyl-cyclobut-2-enone]"
3,0.008 µM,"Cc1ccc(C2(C)C(=O)C(C(c3ccccc3)c3[nH]c4cc(C)ccc4c3C)=C2O)cc1 (stereo not shown) [Example 13, 2-[(3,6-Dimethyl-1H-indol-2-yl)-phenyl-methyl]-3-hydroxy-4-methyl-4-p-tolyl-cyclobut-2-enone]"
4,0.027 µM,"CC(=O)NC(C)(C)Cc1c(C(C2=C(O)C(C)(c3ccccc3)C2=O)c2ccccc2)[nH]c2cc(C)ccc12 (stereo not shown) [Example 3, N-(2-{2-[(2-Hydroxy-3-methyl-4-oxo-3-phenyl-cyclobut-1-enyl)-phenyl-methyl]-6-methyl-1H-indol-3-yl}-1,1-dimethyl-ethyl)-acetamide]"
